Measurements reported in paper PMC11821258 (Molecules, 2025).

Tests used:
[1] = test system: MV4-11 cells; assay: Cell cycle analysis by flow cytometry (propidium iodide); format: cell-based, human; settings: for number of cells in the G2/M phase / number of cells in the G2/M and S phases: about 1.5 × IC50, statistically significant; for number of death cells / number of cells in the G2/M and S phases: MV4-11, 72 h
Procedure: After incubation, the cells were collected and counted with a hemocytometer, and the 5×10^5 cells were washed twice in cold PBS (phosphate-buffered saline) and fixed for 24 h in 70% ethanol at −20 °C. Then, the cells were washed twice in PBS and incubated with 0.5 mL of RNAse (8 μg/mL, Thermo Fisher, Waltham, MA, USA) at 37 °C for 1 h. The cells were stained for 30 min with propidium iodide (final concentration: 50 μg/mL, Merck, Darmstadt, Germany) at 4 °C and the cellular DNA content was analyzed by conducting flow cytometry using a BD LSRFortessa cytometer (BD Bioscience, San Jose, CA, USA). Compounds at each concentration were tested at least three times independently. The obtained results were analyzed using Flowing software 2.5.1 (Cell Imaging Core, Turku Centre for Biotechnology, University of Turku and Åbo Akademi University, Finland).

[2] = test system: human biphenotypic B myelomonocytic leukemia MV4-11; assay: Antiproliferative activity, MTT assay, 72 h; format: cell-based; settings: for IC50: Homo sapiens, MV4-11, 72 h, MTT, read-out: IC50; for SI: IC50 MCF-10A / IC50 MV4-11
Procedure: (§1) The tested compounds were dissolved in DMSO (dimethyl sulfoxide) to a concentration of 10 mg/mL and then were diluted in the culture medium to reach the final concentrations. The cells were plated in 384-well plates at a density of 1 × 10^3 or 2 × 10^3 (MCF-10A) cells per well (Greiner Bio One, Kremsmünster, Austria) and in 96-well plates (MV4-11 cell; Sarstedt, Nümbrecht, Germany) at a density of 5 × 10^3 cells per well. After 24 h of incubation, the tested compounds were added at concentrations in the range of 100–0.03 µg/mL and, after the next 72 h of exposure to tested agents, the cytotoxic effect of all agents was examined using the MTT (MV4-11) or SRB assay, described previously. The values of IC50 (inhibitory concentration 50%) were calculated separately for each experiment (repeated 3–5 times) using the Prolab-3 system which is based on Cheburator 0.4 software. Doxorubicin was applied as a reference drug. The IC50 values in µg/mL were calculated to µM.
This assay was used against MV4-11 leukemia cells and was performed after 72 h of exposure of the tested agents to the cells. For each well, 20 µL of the MTT [3-(4,5-dimethylthiazol-2-yl)-2,5-diphenyl tetrazolium bromide] solution (5 mg/mL, Merck, Darmstadt, Germany) was added. After the incubation time (4 h at 37 °C), 80 µL of the lysing buffer was added to each well (mixture of 225 mL of DMF (dimethylformamide) Avantor, Poland; 67.5 g of SDS, Merck, Darmstadt, Germany; and 275 mL of distilled water). After the next 24 h, the absorbance of the samples was measured at a 570 nm wavelength on a Synergy H4 photometer (BioTek Instruments, Winooski, VT, USA). The absorbance of wells without the cells was the background.

[3] = test system: human pancreas cancer MiaPaca-2 cells; assay: Antiproliferative activity, SRB assay, 72 h; format: cell-based; settings: for IC50: Homo sapiens, MIA PaCa-2, MiaPaca-1 (so in the source), 72 h, SRB, read-out: IC50; for SI: IC50 MCF-10A / IC50 MiaPaca-1 (so in the source)
Procedure: as §1
(§2) The cytotoxicity assay was performed after the cultured cells were exposed to the tested agents for 72 h using the authomatic Washer dyspenser EL406, BioTek. At the first step, the washer dispenser collected 40 µL of cultured medium from each wells, and then the cells were fixed by gently layering 20 µL per well of cold 25% trichloroacetic acid to each well. The incubation time was 40 min and then the plates were washed with tap water. The cells were stained with 20 µL per well of 0.1% sulforhodamine B (SRB, Merck, Darmstadt, Germany) for 30 min. Unbound sulforhodamine B was removed by washing it with 1% acetic acid. The protein-bound dye was extracted in 30 min using 70 µL per well of 10 mM unbuffered Tris base (Merck, Darmstadt, Germany). The absorbance (at 540 nm) was measured on a Synergy H4 photometer (BioTek Instruments, Winooski, VT, USA). The absorbance of the wells without the cells was the background.

[4] = test system: human lung carcinoma A549; assay: Antiproliferative activity, SRB assay, 72 h; format: cell-based; settings: for IC50: Homo sapiens, A549, 72 h, SRB, read-out: IC50; for SI: IC50 MCF-10A / IC50 A549
Procedure: as §1, §2

[5] = test system: human melanoma Hs294T cells; assay: Antiproliferative activity, SRB assay, 72 h; format: cell-based; settings: for IC50: Homo sapiens, Hs 294T, Hs249T (so in the source), 72 h, SRB, read-out: IC50; for SI: IC50 MCF-10A / IC50 Hs249T (so in the source)
Procedure: as §1, §2

[6] = test system: human colon cancer HCT116 cells; assay: Antiproliferative activity, SRB assay, 72 h; format: cell-based; settings: for IC50: Homo sapiens, HCT-116, HCT116, 72 h, SRB, read-out: IC50; for SI: IC50 MCF-10A / IC50 HCT116
Procedure: as §1, §2

[7] = test system: human breast cancer MCF-7; assay: Antiproliferative activity, SRB assay, 72 h; format: cell-based; settings: for IC50: Homo sapiens, MCF7, MCF-7, 72 h, SRB, read-out: IC50; for SI: IC50 MCF-10A / IC50 MCF-7
Procedure: as §1, §2

[8] = test system: human prostate adenocarcinoma PC-3; assay: Antiproliferative activity, SRB assay, 72 h; format: cell-based; settings: for IC50: Homo sapiens, PC-3, 72 h, SRB, read-out: IC50; for SI: IC50 MCF-10A / IC50 PC-3
Procedure: as §1, §2

[9] = test system: human normal epithelial cells from the mammary gland (MCF-10A); assay: Cytotoxicity on non-tumorigenic cells, SRB assay, 72 h; format: cell-based; settings: Homo sapiens, MCF-10A normal cells, SRB, read-out: IC50
Procedure: as §1, §2

[10] = test system: tested cell lines (MV4-11, A549, MCF-7, PC-3, HCT116, MiaPaca-2, Hs294T); assay: Antiproliferative activity, range over the tested cell lines; format: cell-based; settings: Homo sapiens; range across cell lines, 72 h
Procedure: as §1, with “The values of IC50 (inhibitory concentration 50%) were calculated separately for each experiment (repeated 3–5 times) using the Prolab-3 system which is based on Cheburator 0.4 software. Doxorubicin was applied as a reference drug.” left out
This assay was used against MV4-11 leukemia cells and was performed after 72 h of exposure of the tested agents to the cells. […] After the next 24 h, the absorbance of the samples was measured at a 570 nm wavelength on a Synergy H4 photometer (BioTek Instruments, Winooski, VT, USA). The absorbance of wells without the cells was the background.
The cytotoxicity assay was performed after the cultured cells were exposed to the tested agents for 72 h using the authomatic Washer dyspenser EL406, BioTek. […] The absorbance (at 540 nm) was measured on a Synergy H4 photometer (BioTek Instruments, Winooski, VT, USA). […]

[11] = test system: MV4-11 cells; assay: Apoptosis determination via Annexin V and PI staining; format: cell-based, human
Procedure: Camptothecin at a concentration of 0.05 uM was used as a positive control. After incubation, the cells were collected and counted with a hemocytometer, and 1×10^5 cells were washed twice with PBS. APC-Annexin V (Becton Dickinson, Pharmingen, Franklin Lakes, NJ, USA) was dissolved to the concentration of […] in a binding buffer (10 mM HEPES/NaOH, pH 7.4; 150 mM NaCl; 5 mM KCl; 1 mM MgCl2; and 1.8 mM CaCl2) (HIIET, Wrocław, Poland), and the cells were suspended in 200 µL of this solution. After 15 min of the incubation in the dark at room temperature, 20 µL of propidium iodide (PI) solution (0.02 mg/mL) was added. Data acquisition was performed by conducting flow cytometry using a BD LSRFortessa cytometer (BD Bioscience, San Jose, CA, USA). The compounds were tested at least three times independently. Results were analyzed using Flowing software 2.5.1 (Turku, Finland). […] Double-negative cells were live cells, PI+/Annexin V+ were late apoptotic cells, PI-/Annexin V+ were early apoptotic cells, and PI+/Annexin V- were necrotic cells.

[12] = MV4-11, 72 h, higher concentrations

Compound	IC50 [2] [µM]	IC50 [3] [µM]	SI [3]	IC50 [4] [µM]	SI [4]	IC50 [5] [µM]	SI [5]	IC50 [6] [µM]	IC50 [7] [µM]	IC50 [8] [µM]	IC50 [9] [µM]	SI [6]	SI [7]	induction of apoptosis [11, 12]	number of death cells ([1]; about 1.5 × IC50)	number of cells in the G2/M and S phases [1]	SI [2]	SI [8]	other results
C=C(C)[C@@H]1CC[C@]2(CO)CC[C@]3(C)[C@H](CC[C@@H]4[C@@]5(C)CC[C@H](O)C(C)(C)[C@@H]5CC[C@]43C)[C@@H]12 [B, betulin, reference compound]	32.8 ± 12.9	144 ± 22.1	0.68	14 ± 1.13	7.03	58.5 ± 15.6	1.68	37.7 ± 7.45	43.6 ± 15.8	51.5 ± 9.94	98.48 ± 0.9	–	–	–	–	–	–	–	number of cells in the S and G0/G1 phases ([1]; MV4-11, 24 h, about 1.5 × IC50): lowered; number of cells in the G2/M phase ([1]; MV4-11, 24 h): lowered; IC50 [10]: 14 to 144 µM
C#CC(=O)OC[C@]12CC[C@@H](C(=C)C)C1C1CCC3[C@@]4(C)CC[C@H](OC(=O)CC(C)(C)CC(=O)O)C(C)(C)C4CC[C@@]3(C)[C@]1(C)CC2 (stereo partly drawn) [Compound 4a]	0.38 ± 0.14	7.54 ± 0.47	4.40	7.54 ± 1.25	4.40	0.49 ± 0.23	67	7.85 ± 2.35	16.5 ± 1.88	0.86 ± 0.25	33.1 ± 5.18	4.22	2.01	induction of apoptosis was observed	–	–	–	–	induction of apoptosis ([11]; MV4-11, 24 h): induced apoptosis
C#CCCC(=O)OC[C@]12CC[C@@H](C(=C)C)C1C1CCC3[C@@]4(C)CC[C@H](OC(=O)CC(C)(C)CC(=O)O)C(C)(C)C4CC[C@@]3(C)[C@]1(C)CC2 (stereo partly drawn) [Compound 4b]	3.19 ± 1.29	24.5 ± 2.56	1.33	4.06 ± 1.05	8.04	10.7 ± 1.5	3.06	7.82 ± 2.86	11.7 ± 2.41	11.6 ± 4.51	32.6 ± 2.41	4.17	2.78	induction of apoptosis was observed	increased	decreased	10.20	2.82	–
C=C(C)[C@@H]1CC[C@]2(CO)CC[C@]3(C)C(CCC4[C@@]5(C)CC[C@H](OC(=O)CCC(=O)O)C(C)(C)C5CC[C@]43C)C12 (stereo partly drawn) [Compound 6]	6.45 ± 2.03	38.1 ± 3.87	0.84	8.66 ± 1.1	3.68	32.1 ± 1.66	0.99	20.3 ± 5.53	19 ± 6.45	26.2 ± 5.71	31.9 ± 4.24	1.57	1.68	induction of apoptosis was observed	–	–	4.94	1.22	–
C#CCCC(=O)OC[C@]12CC[C@@H](C(=C)C)C1C1CCC3[C@@]4(C)CC[C@H](OC(=O)CC(C)(C)C(=O)O)C(C)(C)C4CC[C@@]3(C)[C@]1(C)CC2 (stereo partly drawn) [Compound 5b]	4.76 ± 0.92	28.4 ± 3.23	1.19	4.15 ± 0.92	8.15	16.1 ± 4.76	2.10	9.06 ± 2.92	12.3 ± 2.92	21.1 ± 1.54	33.8 ± 3.38	3.73	2.75	induction of apoptosis was observed	increased	decreased	7.10	1.61	number of cells in the G2/M phase ([1]; MV4-11, 24 h): lowered; number of necrotic cells ([11]; MV4-11, 72 h): increased the number of necrotic cells
C=C(C)[C@@H]1CC[C@]2(CO)CC[C@]3(C)C(CCC4[C@@]5(C)CC[C@H](OC(=O)CC(C)(C)CC(=O)O)C(C)(C)C5CC[C@]43C)C12 (stereo partly drawn) [Compound 4]	4.77 ± 0.44	22.6 ± 6.5	1.39	3.76 ± 2.05	8.36	24.4 ± 8.89	1.29	11.1 ± 2.56	12.1 ± 3.08	19.2 ± 3.76	31.5 ± 1.71	2.83	2.60	induction of apoptosis was observed	–	–	6.60	1.64	IC50 [10]: 3.76 to 24.4 µM
C#CC(=O)OC[C@]12CC[C@@H](C(=C)C)C1C1CCC3[C@@]4(C)CC[C@H](OC(=O)CCC(=O)O)C(C)(C)C4CC[C@@]3(C)[C@]1(C)CC2 (stereo partly drawn) [Compound 6a]	2.57 ± 1.01	18.5 ± 9.75	2.67	12.9 ± 0.67	3.82	3.53 ± 0.67	14	20.7 ± 9.08	16 ± 1.01	0.41 ± 0.08	49.4 ± 17.8	2.39	3.09	induction of apoptosis was observed	increased	decreased	–	121	–
C=C(C)[C@@H]1CC[C@]2(COC(=O)CC)CC[C@]3(C)C(CCC4[C@@]5(C)CC[C@H](OC(=O)CC(C)(C)C(=O)O)C(C)(C)C5CC[C@]43C)C12 (stereo partly drawn) [Compound 5d]	2.5 ± 0.48	29.2 ± 1.59	1.17	4.62 ± 1.59	7.38	59.7 ± 38.6	0.57	12.3 ± 4.15	21.1 ± 9.89	16.6 ± 6.54	34.1 ± 4.94	2.78	1.62	–	–	–	13.63	2.06	–
